In patent US20190322676A1, “CERAMIDE GALACTOSYLTRANSFERASE INHIBITORS FOR THE TREATMENT OF DISEASE” (BioMarin Pharmaceutical Inc., priority 2016, published 2019) one finds IC50 data, which are given here for 13 molecules.

Structures can show the parent of a compound that is named as a salt.

This test has as its target T1, human CGT (ceramide galactosyltransferase), CHO/CGT lysate (Homo sapiens, UniProt Q16880).
T1 construct: Full-length human CGT cDNA was cloned into the BamH1/Xho1 site of pcDNA3.1 (+); expressed in transfected cells; host or cells: Chinese hamster ovary (CHO) cells; lysate prepared with M-PER
T1 sequence (Q16880 21-541): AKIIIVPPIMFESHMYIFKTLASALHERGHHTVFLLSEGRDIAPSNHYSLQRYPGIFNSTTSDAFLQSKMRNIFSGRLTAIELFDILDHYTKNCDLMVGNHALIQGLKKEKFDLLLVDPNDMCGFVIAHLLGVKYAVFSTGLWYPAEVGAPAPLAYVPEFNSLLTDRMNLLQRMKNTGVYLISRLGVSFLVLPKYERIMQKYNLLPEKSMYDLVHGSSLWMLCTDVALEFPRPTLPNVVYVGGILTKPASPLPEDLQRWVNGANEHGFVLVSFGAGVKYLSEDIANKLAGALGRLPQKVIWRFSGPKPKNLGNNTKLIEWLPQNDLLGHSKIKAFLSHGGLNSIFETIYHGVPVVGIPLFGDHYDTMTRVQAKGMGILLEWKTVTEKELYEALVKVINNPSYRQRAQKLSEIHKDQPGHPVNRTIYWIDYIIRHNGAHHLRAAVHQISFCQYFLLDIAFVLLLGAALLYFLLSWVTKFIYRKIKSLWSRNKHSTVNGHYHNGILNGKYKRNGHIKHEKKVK
Put plainly: CGT enzyme assay, RapidFire/MS/MS readout (Table 1 ranges with one asterisk *). It counts as biochemical. Conditions: RapidFire method (range with one asterisk *). The procedure, abridged: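 IC50s come from variable-slope dose-response fits of internal-standard-normalized C6-NBD-dihydro-galactosylceramide, measured by RapidFire/MS/MS (ESI negative). Reactions: 1 h, 37 °C, human CGT-expressing CHO lysate (4 μg), 0.001–50 μM compound, 10 μM NBD-dihydro-ceramide, 17.5 μM UDP-galactose, 0.5% DMSO, pH 7.2; 0.01% Tween 80 added for ** values.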
On to `NC1CC2CCC(C1)N2C(=O)[C@H](NC(=O)[C@H](O)c1ccc2cc(OC3CCCC3)ccc2c1)C(F)(F)c1ccc(-c2ccc(Cl)cc2)cc1` (stereo partly drawn) [Compound 136-4, (2R)—N-((2S)-3-(3-amino-8-azabicyclo[3.2.1]octan-8-yl)-1-(4′-chloro-[1,1′-biphenyl]-4-yl)-1,1-difluoro-3-oxopropan-2-yl)-2-(6-(cyclopentyloxy)naphthalen-2-yl)-2-hydroxyacetamide trifluoroacetate], for which the IC50 was 30 to 100 µM.

With `O=C([C@@H](NS(=O)(=O)c1ccc2cc(OC3CCCC3)ccc2c1)C(F)(F)c1ccc(-c2ccc(Cl)cc2)cc1)N1CCNCC1` [Compound 137-1, (R)—N-(1-(4′-chloro-[1,1′-biphenyl]-4-yl)-1,1-difluoro-3-oxo-3-(piperazin-1-yl)propan-2-yl)-6-(cyclopentyloxy)naphthalene-2-sulfonamide trifluoroacetate], the IC50 fell in the range of 1 to 10 µM.

Molecule `O=C([C@H](NS(=O)(=O)c1ccc2cc(OC3CCCC3)ccc2c1)C(F)(F)c1ccc(-c2ccc(Cl)cc2)cc1)N1CCNCC1` [Compound 137-2, (S)—N-(1-(4′-chloro-[1,1′-biphenyl]-4-yl)-1,1-difluoro-3-oxo-3-(piperazin-1-yl)propan-2-yl)-6-(cyclopentyloxy)naphthalene-2-sulfonamide trifluoroacetate] displayed an IC50 of 10 to 30 µM.

Turning to `NCC1CCN(C(=O)[C@@H](NS(=O)(=O)c2ccc3cc(OC4CCCC4)ccc3c2)C(F)(F)c2ccc(-c3ccc(Cl)cc3)cc2)CC1` [Compound 138-1, (R)—N-(3-(4-(aminomethyl)piperidin-1-yl)-1-(4′-chloro-[1,1′-biphenyl]-4-yl)-1,1-difluoro-3-oxopropan-2-yl)-6-(cyclopentyloxy)naphthalene-2-sulfonamide trifluoroacetate], the IC50 was under 1 µM.

The molecule `NCC1CCN(C(=O)[C@H](NS(=O)(=O)c2ccc3cc(OC4CCCC4)ccc3c2)C(F)(F)c2ccc(-c3ccc(Cl)cc3)cc2)CC1` [Compound 138-2, (S)—N-(3-(4-(aminomethyl)piperidin-1-yl)-1-(4′-chloro-[1,1′-biphenyl]-4-yl)-1,1-difluoro-3-oxopropan-2-yl)-6-(cyclopentyloxy)naphthalene-2-sulfonamide trifluoroacetate] yielded an IC50 of 1 to 10 µM.

`N[C@@H]1CCN(C(=O)[C@@H](NS(=O)(=O)c2ccc3cc(OC4CCCC4)ccc3c2)C(F)(F)c2ccc(Br)cc2)C1` [Compound 139-1, N—((R)-3-((R)-3-aminopyrrolidin-1-yl)-1-(4-bromophenyl)-1,1-difluoro-3-oxopropan-2-yl)-6-(cyclopentyloxy)naphthalene-2-sulfonamide] gave a concentration for half-maximal inhibition (IC50) of under 1 µM.

In turn, `N[C@@H]1CCN(C(=O)[C@H](NS(=O)(=O)c2ccc3cc(OC4CCCC4)ccc3c2)C(F)(F)c2ccc(Br)cc2)C1` [Compound 139-2, N—((S)-3-((R)-3-aminopyrrolidin-1l-yl)-1-(4-bromophenyl)-1,1-difluoro-3-oxopropan-2-yl)-6-(cyclopentyloxy)naphthalene-2-sulfonamide] yielded an IC50 of 1 to 10 µM.

In the case of `N[C@H]1CCN(C(=O)[C@@H](NS(=O)(=O)c2ccc3cc(OC4CCCC4)ccc3c2)C(F)(F)c2ccc(Br)cc2)C1` [Compound 140-1, N—((R)-3-((S)-3-aminopyrrolidin-1-yl)-1-(4-bromophenyl)-1,1-difluoro-3-oxopropan-2-yl)-6-(cyclopentyloxy)naphthalene-2-sulfonamide], the IC50 fell in the range of 1 to 10 µM.

`N[C@H]1CCN(C(=O)[C@H](NS(=O)(=O)c2ccc3cc(OC4CCCC4)ccc3c2)C(F)(F)c2ccc(Br)cc2)C1` [Compound 140-2, N—((S)-3-((S)-3-aminopyrrolidin-1-yl)-1-(4-bromophenyl)-1,1-difluoro-3-oxopropan-2-yl)-6-(cyclopentyloxy)naphthalene-2-sulfonamide] returned an IC50 of 10 to 30 µM.

As for `NC1CCN(C(=O)[C@@H](NC(=O)[C@H](O)c2ccc(OCC3CCCCC3)cc2)C(F)(F)c2ccc(-c3ccc(Cl)cc3)cc2)CC1` [Compound 141-1, (R)—N—((R)-3-(4-aminopiperidin-1-yl)-1-(4′-chloro-[1,1′-biphenyl]-4-yl)-1,1-difluoro-3-oxopropan-2-yl)-2-(4-(cyclohexylmethoxy)phenyl)-2-hydroxyacetamide trifluoroacetate], the IC50 was in the range of 1 to 10 µM.

In turn, `NC1CCN(C(=O)[C@H](NC(=O)[C@@H](O)c2ccc(OCC3CCCCC3)cc2)C(F)(F)c2ccc(-c3ccc(Cl)cc3)cc2)CC1` [Compound 141-2, (S)—N—((S)-3-(4-aminopiperidin-1-yl)-1-(4′-chloro-[1,1′-biphenyl]-4-yl)-1,1-difluoro-3-oxopropan-2-yl)-2-(4-(cyclohexylmethoxy)phenyl)-2-hydroxyacetamide trifluoroacetate] returned an IC50 of 10 to 30 µM.

Molecule `NC1CCN(C(=O)[C@@H](NC(=O)[C@@H](O)c2ccc(OCC3CCCCC3)cc2)C(F)(F)c2ccc(-c3ccc(Cl)cc3)cc2)CC1` [Compound 141-3, (S)—N—((R)-3-(4-aminopiperidin-1-yl)-1-(4′-chloro-[1,1′-biphenyl]-4-yl)-1,1-difluoro-3-oxopropan-2-yl)-2-(4-(cyclohexylmethoxy)phenyl)-2-hydroxyacetamide trifluoroacetate] had an IC50 of 1 to 10 µM.

The molecule `NC1CCN(C(=O)[C@H](NC(=O)[C@H](O)c2ccc(OCC3CCCCC3)cc2)C(F)(F)c2ccc(-c3ccc(Cl)cc3)cc2)CC1` [Compound 141-4, (R)—N—((S)-3-(4-aminopiperidin-1-yl)-1-(4′-chloro-[1,1′-biphenyl]-4-yl)-1,1-difluoro-3-oxopropan-2-yl)-2-(4-(cyclohexylmethoxy)phenyl)-2-hydroxyacetamide trifluoroacetate] showed an IC50 of 30 to 100 µM.

By IC50 is commonly meant the concentration at which inhibition is half-maximal. A high value points to lower potency.
